Columns and labels:
Test in all cases: relative viability (nuclei count vs DMSO), 5 days (fraction); higher = more cells survive
AZD5582 + Bortezomib = compound: C[C@@H](C(=O)N[C@@H](C1CCCCC1)C(=O)N2CCC[C@H]2C(=O)N[C@@H]3[C@@H](CC4=CC=CC=C34)OCC#CC#CCO[C@@H]5CC6=CC=CC=C6[C@@H]5NC(=O)[C@@H]7CCCN7C(=O)[C@H](C8CCCCC8)NC(=O)[C@H](C)NC)NC [AZD5582] + CC(C)C[C@H](NC(=O)[C@H](Cc1ccccc1)NC(=O)c1cnccn1)B(O)O [Bortezomib] (partner 0.002 µM)
How it was run: (§1)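 The day after seeding in 1536-well plates, lung cancer cell lines were treated by pin tool with a single drug, or with a fixed anchor-drug dose together with five library-drug doses (not always all listed) in √10 steps. After 5 days, a combined fix-and-stain solution (final 0.05% Triton X-100, 1% formaldehyde, 1 ug/ml Hoechst) was added. Nuclei counted on 4× images gave relative viability as treated counts over vehicle counts, reported as the median of duplicate plates.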

AZD5582 + Vorinostat = compound: C[C@@H](C(=O)N[C@@H](C1CCCCC1)C(=O)N2CCC[C@H]2C(=O)N[C@@H]3[C@@H](CC4=CC=CC=C34)OCC#CC#CCO[C@@H]5CC6=CC=CC=C6[C@@H]5NC(=O)[C@@H]7CCCN7C(=O)[C@H](C8CCCCC8)NC(=O)[C@H](C)NC)NC [AZD5582] + O=C(CCCCCCC(=O)Nc1ccccc1)NO [Vorinostat] (partner 1 µM)
How it was run: as §1

[1] = compound: Cn1nnc2c(C(N)=O)ncn2c1=O [Temozolomide] + N=C(N)NC(=N)NCCc1ccccc1 [Phenformin] (partner 250 µM)
How it was run: as §1

Temozolomide + AZD7762 = compound: Cn1nnc2c(C(N)=O)ncn2c1=O [Temozolomide] + NC(=O)Nc1cc(-c2cccc(F)c2)sc1C(=O)N[C@H]1CCCNC1 [AZD7762] (partner 0.2 µM)
How it was run: as §1

Cell Line | relative viability (AZD5582 + Bortezomib; first compound 0.001581 µM) | relative viability (AZD5582 + Bortezomib; first compound 0.005 µM) | relative viability (AZD5582 + Bortezomib; first compound 0.01581 µM) | relative viability (AZD5582 + Bortezomib; first compound 0.05 µM) | relative viability (AZD5582 + Vorinostat; first compound 0.001581 µM) | relative viability (AZD5582 + Vorinostat; first compound 0.005 µM) | relative viability (AZD5582 + Vorinostat; first compound 0.01581 µM) | relative viability (AZD5582 + Vorinostat; first compound 0.05 µM) | relative viability ([1]; first compound 0.2 µM) | relative viability ([1]; first compound 0.6325 µM) | relative viability ([1]; first compound 2 µM) | relative viability ([1]; first compound 6.325 µM) | relative viability ([1]; first compound 20 µM) | relative viability (Temozolomide + AZD7762; first compound 0.2 µM) | relative viability (Temozolomide + AZD7762; first compound 0.6325 µM) | relative viability (Temozolomide + AZD7762; first compound 2 µM) | relative viability (Temozolomide + AZD7762; first compound 6.325 µM) | relative viability (Temozolomide + AZD7762; first compound 20 µM)
NCI-H2085 | 0.953 | 1.19 | 0.933 | 1.17 | 0.82 | 1 | 0.73 | 0.917 | 0.594 | 0.707 | 0.809 | 0.689 | 0.649 | 0.878 | 1.03 | 0.938 | 0.928 | 0.972
NCI-H2087 | 0.874 | 0.861 | 0.735 | 0.933 | 0.424 | 0.788 | 0.712 | 0.594 | 0.49 | 0.474 | 0.506 | 0.458 | 0.482 | 1.38 | 1.31 | 1.46 | 1.35 | 1.33
NCI-H2126 | 1.08 | 1.1 | 1.01 | 1.05 | 0.817 | 0.84 | 0.47 | 0.704 | 0.503 | 0.591 | 0.574 | 0.513 | 0.519 | 1.05 | 1.02 | 1.02 | 0.959 | 1.11
NCI-H2347 | 0.73 | 0.949 | 0.693 | 0.929 | 0.63 | 0.547 | 0.515 | 0.483 | 0.34 | 0.376 | 0.378 | 0.387 | 0.607 | 0.572 | 0.743 | 0.757 | 0.792 | 0.706
